Experimental data from patent US6737383B1, “Herbicidal oxadiazolidines” (priority 1999, dated 2004).

Tests used:
[1] = tested on: crabgrass; assay: Test B pre/postemergence crabgrass; format: in vivo, Digitaria sanguinalis
Summary of the method: (§1)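 Herbicidal effect was estimated by eye on a ten-point control scale after plants spent twelve to sixteen days in a greenhouse following soil or foliar treatment. Foliar sprays targeted plants at one to four leaves; all doses were formulated in a non-phytotoxic solvent with surfactant.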

[2] = tested on: cocklebur; assay: Test B pre/postemergence cocklebur; format: in vivo, Xanthium strumarium
Summary of the method: as §1

[3] = tested on: velvetleaf; assay: Test B pre/postemergence velvetleaf; format: in vivo, Abutilon theophrasti
Summary of the method: as §1

[4] = tested on: corn; assay: Test B pre/postemergence corn; format: in vivo, Zea mays
Summary of the method: as §1

[5] = tested on: smallflower flatsedge; assay: Test B flood test smallflower flatsedge; format: in vivo, Cyperus difformis
Summary of the method: (§2)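 Plants were grown to the 2-leaf stage before treatment with test chemical, then held in a greenhouse for twelve to sixteen days. Injury was visually rated against untreated controls on a 0–10 scale, where 0 is no effect and 10 is complete control.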

[6] = tested on: bamyardgrass; assay: Test B flood test barnyardgrass; format: in vivo, Echinochloa crus-galli
Summary of the method: as §2

[7] = tested on: purple nutsedge; assay: Test B pre/postemergence purple nutsedge; format: in vivo, Cyperus rotundus
Summary of the method: as §1

[8] = tested on: wild oat; assay: Test B pre/postemergence wild oat; format: in vivo, Avena fatua
Summary of the method: as §1

[9] = tested on: duck salad; assay: Test B flood test duck salad; format: in vivo, Heteranthera limosa
Summary of the method: as §2

[10] = tested on: rice; assay: Test B flood test rice; format: in vivo, Oryza sativa
Summary of the method: as §2

[11] = tested on: soybean; assay: Test B pre/postemergence soybean; format: in vivo, Glycine max
Summary of the method: as §1

[12] = tested on: wheat; assay: Test B pre/postemergence wheat; format: in vivo, Triticum aestivum
Summary of the method: as §1

[13] = tested on: blackgrass; assay: Test B pre/postemergence blackgrass; format: in vivo, Alopecurus myosuroides
Summary of the method: as §1

[14] = tested on: sugar beet; assay: Test B pre/postemergence sugar beet; format: in vivo, Beta vulgaris
Summary of the method: as §1

[15] = tested on: bedstraw; assay: Test B pre/postemergence bedstraw; format: in vivo, Galium aparine
Summary of the method: as §1

[16] = tested on: surinam grass; assay: Test B pre/postemergence surinam grass; format: in vivo, Brachiaria decumbens
Summary of the method: as §1

[17] = Postemergence, Rate 125 g/ha, scale 0 to 10, 0 is no effect, 10 is complete control
[18] = Preemergence, Rate 62 g/ha, scale 0 to 10 (0 no effect, 10 complete control)
[19] = Preemergence, Rate 125 g/ha, scale 0 to 10, 0 is no effect, 10 is complete control
[20] = Preemergence, Rate 500 g/ha, scale of 0 to 10 where 0 is no effect and 10 is complete control
[21] = Rate 250 g/ha, Postemergence, scale of 0 to 10 where 0 is no effect and 10 is complete control
[22] = Postemergence, Rate 62 g/ha, scale of 0 to 10, 0 is no effect, 10 is complete control
[23] = Postemergence, Rate 500 g/ha, scale 0 to 10, 0 is no effect, 10 is complete control
[24] = Rate 62 g/ha, flood test species, Pre-emergence, visual evaluation after twelve to sixteen days
[25] = Rate 125 g/ha, under heading Pre-emergence, flood test species, visual evaluation after twelve to sixteen days
[26] = Rate 250 g/ha, Pre-emergence (flood test species), scale 0 to 10, 0 is no effect, 10 is complete control
[27] = Rate 500 g/ha, Pre-emergence section of Table B, 0 to 10 scale (0 no effect, 10 complete control)

CC(C)N(C(=O)n1oc(=O)n(CC2CCC2)c1=O)c1ccc(Cl)cc1 [Compound 550]
Crabgrass plant response rating [1, 17]: 7
Crabgrass plant response rating [1, 18]: 4
Crabgrass plant response rating [1, 19]: 10
Crabgrass plant response rating (0 to 10 scale) ([1]; Preemergence, Rate 250 g/ha): 10
Crabgrass plant response rating [1, 20]: 10
Plant response rating, Crabgrass [1, 21]: 10
Cocklebur plant response rating [2, 22]: 0
Cocklebur plant response rating [2, 17]: 0
Plant response rating, Cocklebur [2, 23]: 2
Cocklebur plant response rating [2, 18]: 0
Cocklebur plant response rating [2, 19]: 0
Cocklebur plant response rating (0 to 10 scale) ([2]; Preemergence, Rate 250 g/ha): 0
Cocklebur plant response rating [2, 20]: 0
Plant response rating, Cocklebur [2, 21]: 1
Velvetleaf plant response rating [3, 22]: 0
Velvetleaf plant response rating [3, 17]: 0
Plant response rating, Velvetleaf [3, 23]: 2
Velvetleaf plant response rating [3, 18]: 0
Velvetleaf plant response rating [3, 19]: 0
Velvetleaf plant response rating (0 to 10 scale) ([3]; Preemergence, Rate 250 g/ha): 2
Velvetleaf plant response rating [3, 20]: 4
Plant response rating, Velvetleaf [3, 21]: 0
Corn plant response rating [4, 22]: 0
Corn plant response rating [4, 17]: 0
Plant response rating, Corn [4, 23]: 2
Corn plant response rating [4, 18]: 0
Corn plant response rating [4, 19]: 0
Corn plant response rating (0 to 10 scale) ([4]; Preemergence, Rate 250 g/ha): 0
Corn plant response rating [4, 20]: 0
Plant response rating, Corn [4, 21]: 0
Plant response rating, S. Flatsedge (0 to 10 scale, 0 is no effect, 10 is complete control) [5, 24]: 0
S. Flatsedge plant response rating (0 to 10 scale, 0 is no effect, 10 is complete control) [5, 25]: 0
S. Flatsedge plant response rating [5, 26]: 0
S. Flatsedge plant response rating [5, 27]: 0
Plant response rating, Barnyardgrass (0 to 10 scale, 0 is no effect, 10 is complete control) [6, 24]: 0
Barnyardgrass plant response rating (0 to 10 scale, 0 is no effect, 10 is complete control) [6, 25]: 0
Barnyardgrass plant response rating [6, 26]: 0
Barnyardgrass plant response rating [6, 27]: 0
Nutsedge plant response rating [7, 22]: 0
Nutsedge plant response rating [7, 17]: 0
Plant response rating, Nutsedge [7, 23]: 2
Nutsedge plant response rating [7, 18]: 0
Nutsedge plant response rating [7, 19]: 0
Nutsedge plant response rating (0 to 10 scale) ([7]; Preemergence, Rate 250 g/ha): 0
Nutsedge plant response rating [7, 20]: 6
Plant response rating, Nutsedge [7, 21]: 0
Wild oats plant response rating [8, 22]: 0
Wild oats plant response rating [8, 17]: 2
Plant response rating, Wild oats [8, 23]: 3
Wild oats plant response rating [8, 18]: 0
Wild oats plant response rating [8, 19]: 0
Wild oats plant response rating (0 to 10 scale) ([8]; Preemergence, Rate 250 g/ha): 2
Wild oats plant response rating [8, 20]: 8
Plant response rating, Wild oats [8, 21]: 4
Plant response rating, Ducksalad (0 to 10 scale, 0 is no effect, 10 is complete control) [9, 24]: 0
Ducksalad plant response rating (0 to 10 scale, 0 is no effect, 10 is complete control) [9, 25]: 0
Ducksalad plant response rating [9, 26]: 0
Ducksalad plant response rating [9, 27]: 0
Plant response rating, Rice (0 to 10 scale, 0 is no effect, 10 is complete control) [10, 24]: 0
Rice plant response rating (0 to 10 scale, 0 is no effect, 10 is complete control) [10, 25]: 0
Rice plant response rating [10, 26]: 0
Rice plant response rating [10, 27]: 0
Soybean plant response rating [11, 22]: 2
Soybean plant response rating [11, 17]: 2
Plant response rating, Soybean [11, 23]: 3
Soybean plant response rating [11, 18]: 0
Soybean plant response rating [11, 19]: 0
Soybean plant response rating (0 to 10 scale) ([11]; Preemergence, Rate 250 g/ha): 0
Soybean plant response rating [11, 20]: 0
Plant response rating, Soybean [11, 21]: 3
Wheat plant response rating [12, 22]: 0
Wheat plant response rating [12, 17]: 0
Plant response rating, Wheat [12, 23]: 0
Wheat plant response rating [12, 18]: 0
Wheat plant response rating [12, 19]: 2
Wheat plant response rating (0 to 10 scale) ([12]; Preemergence, Rate 250 g/ha): 2
Wheat plant response rating [12, 20]: 2
Plant response rating, Wheat [12, 21]: 0
Blackgrass plant response rating [13, 22]: 0
Blackgrass plant response rating [13, 17]: 0
Plant response rating, Blackgrass [13, 23]: 2
Blackgrass plant response rating [13, 18]: 0
Blackgrass plant response rating [13, 19]: 2
Blackgrass plant response rating (0 to 10 scale) ([13]; Preemergence, Rate 250 g/ha): 7
Blackgrass plant response rating [13, 20]: 9
Plant response rating, Blackgrass [13, 21]: 2
Sugarbeets plant response rating [14, 22]: 0
Sugarbeets plant response rating [14, 17]: 0
Plant response rating, Sugarbeets [14, 23]: 5
Sugarbeets plant response rating [14, 18]: 0
Sugarbeets plant response rating [14, 19]: 0
Sugarbeets plant response rating (0 to 10 scale) ([14]; Preemergence, Rate 250 g/ha): 5
Sugarbeets plant response rating [14, 20]: 8
Plant response rating, Sugarbeets [14, 21]: 2
Bedstraw plant response rating [15, 22]: 0
Bedstraw plant response rating [15, 17]: 0
Plant response rating, Bedstraw [15, 23]: 0
Bedstraw plant response rating [15, 18]: 0
Bedstraw plant response rating [15, 19]: 0
Bedstraw plant response rating (0 to 10 scale) ([15]; Preemergence, Rate 250 g/ha): 0
Bedstraw plant response rating [15, 20]: 3
Plant response rating, Bedstraw [15, 21]: 0
B. signalgrass plant response rating [16, 22]: 0
B. signalgrass plant response rating [16, 17]: 0
Plant response rating, B. signalgrass [16, 23]: 2
B. signalgrass plant response rating [16, 18]: 6
B. signalgrass plant response rating [16, 19]: 9
B. signalgrass plant response rating (0 to 10 scale, 0 is no effect, 10 is complete control) ([16]; Preemergence, Rate 250 g/ha): 9
B. signalgrass plant response rating [16, 20]: 10
Plant response rating, B. signalgrass [16, 21]: 2
